# Reference: PubChem BioAssay (NCI)
#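 Growth conditions: 96-well plates. Treatment: test compound, 48 hours, 5 concentrations. Analysis: linear interpolation between bracketing concentrations; unreached endpoints set to highest concentration. Definition used: TGI = concentration required for complete inhibition of growth.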
# Key:
# Assay in all cases: DTP human tumour cell line panel, 48 h
# A498 renal = system: A498 renal
# ACHN renal = system: ACHN renal
# CAKI-1 renal = system: CAKI-1 renal
# EKVX NSCLC = system: EKVX NSCLC
# HCT-116 colon = system: HCT-116 colon
# HCT-15 colon = system: HCT-15 colon
# HOP-62 NSCLC = system: HOP-62 NSCLC
# HT29 colon = system: HT29 colon
# IGROV1 ovarian = system: IGROV1 ovarian
# M14 melanoma = system: M14 melanoma
# MDA-MB-231 breast = system: MDA-MB-231 breast
# MDA-MB-435 = system: MDA-MB-435
# NCI/ADR-RES ovarian = system: NCI/ADR-RES ovarian
# OVCAR-4 ovarian = system: OVCAR-4 ovarian
# PC-3 prostate = system: PC-3 prostate
# SF-268 CNS = system: SF-268 CNS
# SF-539 CNS = system: SF-539 CNS
# SW-620 colon = system: SW-620 colon
# UACC-257 melanoma = system: UACC-257 melanoma
smiles,measurement,setting,value
O=C1/C(=C/c2ccco2)N=C2Sc3c(nc[nH]c3=O)N12,TGI,A498 renal,> 100 µM
same,TGI,ACHN renal,> 100 µM
same,TGI,CAKI-1 renal,> 100 µM
same,TGI,EKVX NSCLC,> 100 µM
same,TGI,HCT-116 colon,> 100 µM
same,TGI,HCT-15 colon,> 100 µM
same,TGI,HOP-62 NSCLC,> 100 µM
same,TGI,HT29 colon,> 100 µM
same,TGI,IGROV1 ovarian,> 100 µM
same,TGI,M14 melanoma,> 100 µM
same,TGI,MDA-MB-231 breast,> 100 µM
same,TGI,MDA-MB-435,> 100 µM
same,TGI,NCI/ADR-RES ovarian,> 100 µM
same,TGI,OVCAR-4 ovarian,> 100 µM
same,TGI,PC-3 prostate,> 100 µM
same,TGI,SF-268 CNS,> 100 µM
same,TGI,SF-539 CNS,> 100 µM
same,TGI,SW-620 colon,> 100 µM
same,TGI,UACC-257 melanoma,> 100 µM
NC(=O)c1ncn(C2OC(CO)C(O)C2O)c1NC=O (configuration not stated),TGI,A498 renal,> 100 µM
same,TGI,ACHN renal,> 100 µM
same,TGI,CAKI-1 renal,> 100 µM
same,TGI,EKVX NSCLC,> 100 µM
same,TGI,HCT-116 colon,> 100 µM
same,TGI,HCT-15 colon,> 100 µM
same,TGI,HOP-62 NSCLC,> 100 µM
same,TGI,HT29 colon,> 100 µM
same,TGI,IGROV1 ovarian,> 100 µM
same,TGI,M14 melanoma,> 100 µM
same,TGI,MDA-MB-231 breast,> 100 µM
same,TGI,MDA-MB-435,> 100 µM
same,TGI,NCI/ADR-RES ovarian,> 100 µM
same,TGI,OVCAR-4 ovarian,> 100 µM
same,TGI,PC-3 prostate,> 100 µM
same,TGI,SF-268 CNS,> 100 µM
same,TGI,SF-539 CNS,> 100 µM
same,TGI,SW-620 colon,> 100 µM
same,TGI,UACC-257 melanoma,> 100 µM
N#Cc1ccc(N2CCOCC2)cc1,TGI,A498 renal,> 100 µM
same,TGI,ACHN renal,> 100 µM
same,TGI,CAKI-1 renal,> 100 µM
same,TGI,EKVX NSCLC,> 100 µM
same,TGI,HCT-116 colon,> 100 µM
same,TGI,HCT-15 colon,> 100 µM
same,TGI,HOP-62 NSCLC,> 100 µM
same,TGI,HT29 colon,> 100 µM
same,TGI,IGROV1 ovarian,> 100 µM
same,TGI,M14 melanoma,> 100 µM
same,TGI,MDA-MB-231 breast,> 100 µM
same,TGI,MDA-MB-435,> 100 µM
same,TGI,NCI/ADR-RES ovarian,> 100 µM
same,TGI,OVCAR-4 ovarian,> 100 µM
same,TGI,PC-3 prostate,> 100 µM
same,TGI,SF-268 CNS,> 100 µM
same,TGI,SF-539 CNS,> 100 µM
same,TGI,SW-620 colon,> 100 µM
same,TGI,UACC-257 melanoma,> 100 µM
CC(=NNC(=S)Nc1cccc(C)c1)c1cccc(C(C)=NNC(=S)Nc2cccc(C)c2)n1,TGI,A498 renal,61.6 µM
same,TGI,ACHN renal,46.4 µM
same,TGI,CAKI-1 renal,71.1 µM
same,TGI,EKVX NSCLC,> 100 µM
same,TGI,HCT-116 colon,37.8 µM
same,TGI,HCT-15 colon,> 100 µM
same,TGI,HOP-62 NSCLC,> 100 µM
same,TGI,HT29 colon,> 100 µM
same,TGI,IGROV1 ovarian,46.7 µM
same,TGI,M14 melanoma,39.3 µM
same,TGI,MDA-MB-231 breast,59.9 µM
same,TGI,MDA-MB-435,> 100 µM
same,TGI,NCI/ADR-RES ovarian,76.6 µM
same,TGI,OVCAR-4 ovarian,38.5 µM
same,TGI,PC-3 prostate,> 100 µM
same,TGI,SF-268 CNS,> 100 µM
same,TGI,SF-539 CNS,46.1 µM
same,TGI,SW-620 colon,70.5 µM
same,TGI,UACC-257 melanoma,0.0745 µM
Cc1ccc(N=NC(=Nc2ccc(Cl)cc2)c2ccc(N(CCC#N)CCC#N)cc2)cc1,TGI,A498 renal,> 100 µM
same,TGI,ACHN renal,> 100 µM
same,TGI,CAKI-1 renal,> 100 µM
same,TGI,EKVX NSCLC,> 100 µM
same,TGI,HCT-116 colon,> 100 µM
same,TGI,HCT-15 colon,> 100 µM
same,TGI,HOP-62 NSCLC,> 100 µM
same,TGI,HT29 colon,> 100 µM
same,TGI,IGROV1 ovarian,> 100 µM
same,TGI,M14 melanoma,> 100 µM
same,TGI,MDA-MB-231 breast,81.8 µM
same,TGI,MDA-MB-435,> 100 µM
same,TGI,NCI/ADR-RES ovarian,> 100 µM
same,TGI,OVCAR-4 ovarian,> 100 µM
same,TGI,PC-3 prostate,92 µM
same,TGI,SF-268 CNS,> 100 µM
same,TGI,SF-539 CNS,> 100 µM
same,TGI,SW-620 colon,> 100 µM
same,TGI,UACC-257 melanoma,76.1 µM
CN(C)CCCNc1ncnc2c1ncn2C1OC(CO)C(O)C1O (configuration not stated),TGI,A498 renal,> 100 µM
same,TGI,ACHN renal,> 100 µM
same,TGI,CAKI-1 renal,> 100 µM
same,TGI,EKVX NSCLC,> 100 µM
same,TGI,HCT-116 colon,> 100 µM
same,TGI,HCT-15 colon,> 100 µM
same,TGI,HOP-62 NSCLC,> 100 µM
same,TGI,HT29 colon,> 100 µM
same,TGI,IGROV1 ovarian,> 100 µM
same,TGI,M14 melanoma,> 100 µM
same,TGI,MDA-MB-231 breast,> 100 µM
same,TGI,MDA-MB-435,> 100 µM
same,TGI,NCI/ADR-RES ovarian,> 100 µM
same,TGI,OVCAR-4 ovarian,> 100 µM
same,TGI,PC-3 prostate,> 100 µM
same,TGI,SF-268 CNS,> 100 µM
same,TGI,SF-539 CNS,> 100 µM
same,TGI,SW-620 colon,> 100 µM
same,TGI,UACC-257 melanoma,> 100 µM
Cc1occc1C(=S)Nc1ccc(Cl)c(/C=N/OC(C)(C)C)c1,TGI,A498 renal,40.2 µM
same,TGI,ACHN renal,30.6 µM
same,TGI,CAKI-1 renal,41.1 µM
same,TGI,EKVX NSCLC,43.3 µM
same,TGI,HCT-116 colon,27 µM
same,TGI,HCT-15 colon,31.2 µM
same,TGI,HOP-62 NSCLC,45.9 µM
same,TGI,HT29 colon,28.5 µM
same,TGI,IGROV1 ovarian,> 56.3 µM
same,TGI,M14 melanoma,40.9 µM
same,TGI,MDA-MB-231 breast,42.3 µM
same,TGI,MDA-MB-435,31.7 µM
same,TGI,NCI/ADR-RES ovarian,32.7 µM
same,TGI,OVCAR-4 ovarian,45 µM
same,TGI,PC-3 prostate,33 µM
same,TGI,SF-268 CNS,54.8 µM
same,TGI,SF-539 CNS,> 100 µM
same,TGI,SW-620 colon,36.9 µM
same,TGI,UACC-257 melanoma,31.7 µM
CCOC(=O)C1(C(=O)OCC)C[C@@H](C)[C@@H](O)C1,TGI,A498 renal,> 100 µM
same,TGI,ACHN renal,> 100 µM
same,TGI,CAKI-1 renal,> 100 µM
same,TGI,EKVX NSCLC,> 100 µM
same,TGI,HCT-116 colon,> 100 µM
same,TGI,HCT-15 colon,> 100 µM
same,TGI,HOP-62 NSCLC,> 100 µM
same,TGI,HT29 colon,> 100 µM
same,TGI,IGROV1 ovarian,> 100 µM
same,TGI,M14 melanoma,> 100 µM
same,TGI,MDA-MB-231 breast,> 100 µM
same,TGI,MDA-MB-435,> 100 µM
same,TGI,NCI/ADR-RES ovarian,> 100 µM
same,TGI,OVCAR-4 ovarian,> 100 µM
same,TGI,PC-3 prostate,> 100 µM
same,TGI,SF-268 CNS,> 100 µM
same,TGI,SF-539 CNS,> 100 µM
same,TGI,SW-620 colon,> 100 µM
same,TGI,UACC-257 melanoma,> 100 µM
